Laboratory results from ChEMBL document CHEMBL1201862, “PubChem BioAssay data set” (2004).
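Where inhibition never reached the appropriate level, the endpoint shown equals the highest concentration tested. Otherwise, values were interpolated linearly from a five-concentration, 48-hour dose response in 96-well plates. GI50 is the concentration that inhibits growth by half.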 Active and inactive are the calls of the source. Cut-off read from the data, not from the text of the source: active = GI50 up to about 1.1 µM and inactive = higher.

What was measured:
Assay in all cases: NCI anticancer screen, dose series, 48 h
HOP-62 = system: HOP-62
KM12 = system: KM12
SK-OV-3 = system: SK-OV-3
U-251 = system: U-251
HOP-92 = system: HOP-92
COLO 205 = system: COLO 205
HCT-15 = system: HCT-15
EKVX = system: EKVX
SK-MEL-2 = system: SK-MEL-2
SW-620 = system: SW-620
HL-60 = system: HL-60
HCC 2998 = system: HCC 2998
OVCAR-3 = system: OVCAR-3
SF-539 = system: SF-539
NCI-H23 = system: NCI-H23
OVCAR-5 = system: OVCAR-5
SF-268 = system: SF-268
ACHN = system: ACHN
OVCAR-8 = system: OVCAR-8
LOX IMVI = system: LOX IMVI

SMILES | GI50 (HOP-62) | GI50 (KM12) | GI50 (SK-OV-3) | GI50 (U-251) | GI50 (HOP-92) | GI50 (COLO 205) | GI50 (HCT-15) [µM] | GI50 (EKVX) | GI50 (SK-MEL-2) | GI50 (SW-620) | GI50 (HL-60) | GI50 (HCC 2998) | GI50 (OVCAR-3) | GI50 (SF-539) | GI50 (NCI-H23) | GI50 (OVCAR-5) | GI50 (SF-268) | GI50 (ACHN) | GI50 (OVCAR-8) | GI50 (LOX IMVI)
O=C(O)C(Br)Cc1ccc2c(c1)OCO2 (centres undefined) | > 100 µM (inactive) | > 100 µM (inactive) | > 100 µM (inactive) | > 100 µM (inactive) | > 100 µM (inactive) | 55.7 µM (inactive) | > 100 | > 100 µM (inactive) | > 100 µM (inactive) | > 100 µM (inactive) | > 100 µM (inactive) | > 100 µM (inactive) | > 100 µM (inactive) | > 100 µM (inactive) | > 100 µM (inactive) | > 100 µM (inactive) | > 100 µM (inactive) | > 100 µM (inactive) |  | 
CCOC(=O)C1=C(C)N(c2ccc(Cl)cc2)C2(O)C=CC(Nc3ccc(Cl)cc3)=C3C(=O)N(c4ccccc4)C(=O)C312 (centres undefined) | 1.63 µM (inactive) | 4.34 µM (inactive) | 8.85 µM (inactive) | 4.85 µM (inactive) | 0.791 µM (active) | 2.44 µM (inactive) | 3.45 |  | 2.58 µM (inactive) | 3.74 µM (inactive) | 2.97 µM (inactive) |  | 0.313 µM (active) | 3.87 µM (inactive) | 5.42 µM (inactive) | 3.96 µM (inactive) | 2.4 µM (inactive) | 6.75 µM (inactive) | 3.64 µM (inactive) | 1.67 µM (inactive)
COP(=O)(OC)C(Cc1c[nH]c2ccccc12)NC(=O)OCc1ccccc1 (centres undefined) | > 100 µM (inactive) |  | > 100 µM (inactive) | > 100 µM (inactive) | > 100 µM (inactive) | > 100 µM (inactive) | > 100 |  | > 100 µM (inactive) | > 100 µM (inactive) | > 100 µM (inactive) | > 100 µM (inactive) | 40.5 µM (inactive) |  | > 100 µM (inactive) | > 100 µM (inactive) |  | > 100 µM (inactive) | > 100 µM (inactive) | > 100 µM (inactive)
COc1cc(CNc2nc3c(NC(C)=O)cc(C(F)(F)F)cc3nc2-c2ccccc2)cc(OC)c1OC | > 100 µM (inactive) | > 100 µM (inactive) | > 100 µM (inactive) |  | 17.8 µM (inactive) | > 100 µM (inactive) | > 100 | > 100 µM (inactive) | > 100 µM (inactive) | > 100 µM (inactive) |  | > 100 µM (inactive) | > 100 µM (inactive) | > 100 µM (inactive) |  | > 100 µM (inactive) | > 100 µM (inactive) | > 100 µM (inactive) | > 100 µM (inactive) | > 100 µM (inactive)
